Calls of active or inactive are those of the source. No cut-off for these calls is given here.
Legend:
[1] = test system: MCF7; test: Antiproliferative activity against human MCF7 cells assessed as inhibition of cell growth incubated for 24 to 72 hrs by MTT assay; type: functional, cell-based; conditions: time 24-72 hrs
[2] = test system: PC-3; test: Antiproliferative activity against human PC-3 cells assessed as inhibition of cell growth incubated for 24 to 72 hrs by MTT assay; type: functional, cell-based; conditions: time 24-72 hrs
[3] = test system: MGC-803; test: Antiproliferative activity against human MGC-803 cells assessed as inhibition of cell growth incubated for 48 hrs by MTT assay; type: functional, cell-based; conditions: MGC-803, 48 h
[4] = test system: HGC-27; test: Antiproliferative activity against human HGC-27 cells assessed as inhibition of cell growth incubated for 48 hrs by MTT assay; type: functional, cell-based; conditions: HGC-27, 48 h
[5] = test system: BGC-823; test: Antiproliferative activity against human BGC-823 cells assessed as inhibition of cell growth incubated for 48 hrs by MTT assay; type: functional, cell-based; conditions: BGC-823, 48 h
[6] = test system: MGC-803; test: Antiproliferative activity against human MGC-803 cells assessed as inhibition of cell growth incubated for 24 to 48 hrs by MTT assay; type: functional, cell-based
[7] = test system: MGC-803; test: Antiproliferative activity against human MGC-803 cells assessed as inhibition of cell growth upto 2.5 uM by MTT assay; type: functional, cell-based; conditions: time 24-72 hrs
[8] = test system: MGC-803; test: Antiproliferative activity against human MGC-803 cells assessed as reduction in clone areas incubated for 48 hrs […]; type: functional, cell-based; conditions: dose <= 2.0 µM
[9] = test system: MGC-803; test: Inhibition of cell migration in human MGC-803 cells incubated for 24 hrs by microscopic analysis; type: functional, cell-based; conditions: dose <= 1.0 µM
[10] = test system: MGC-803; test: Upregulation of E-cadherin expression in human MGC-803 cells at 1 to 4 uM incubated for 48 hrs by Western blot analysis; type: functional, cell-based; conditions: dose 1-4 µM
[11] = test system: MGC-803; test: Downregulation of alpha-SMA expression in human MGC-803 cells at 1 to 4 uM incubated for 48 hrs by Western blot analysis; type: functional, cell-based; conditions: dose 1-4 µM
[12] = Potency index, ratio of andrographolide IC50 to test compound IC50 for antiproliferative activity against human MGC-803 cells assessed as inhibition of cell growth incubated for 24 to 72 hrs by MTT assay; type: functional; conditions: time 24-72 hrs
[13] = Potency index, ratio of 5-fluorouracil IC50 to test compound IC50 for antiproliferative activity against human MGC-803 cells assessed as inhibition of cell growth incubated for 24 to 72 hrs by MTT assay; type: functional; conditions: time 24-72 hrs
[14] = test system: MGC-803; test: Induction of cell cycle arrest in human MGC-803 cells assessed as accumulation of cells at G2/M phase at 0.5 uM incubated for 48 hrs by PI staining based flow cytometry analysis; type: functional
[15] = test system: MGC-803; test: Induction of cell cycle arrest in human MGC-803 cells assessed as accumulation of cells at G2/M phase at 1 uM incubated for 48 hrs by PI staining based flow cytometry analysis; type: functional
[16] = test system: MGC-803; test: Induction of cell cycle arrest in human MGC-803 cells assessed as accumulation of cells at G2/M phase incubated for 48 hrs by PI staining based flow cytometry analysis; type: functional; conditions: dose 0.25-1 µM
[17] = test system: MGC-803; test: Induction of apoptosis in human MGC-803 cells assessed as viable cells at 1 uM incubated for 48 hrs by Annexin V-FITC/PI staining based flow cytometry analysis (reference value: 93.9%); type: functional; conditions: read-out: Activity
[18] = test system: MGC-803; test: Induction of apoptosis in human MGC-803 cells assessed as early apoptotic cells at 1 uM incubated for 48 hrs by Annexin V-FITC/PI staining based flow cytometry analysis (reference value: 0.30%); type: functional
[19] = test system: MGC-803; test: Induction of apoptosis in human MGC-803 cells assessed as late apoptotic cells at 1 uM incubated for 48 hrs by Annexin V-FITC/PI staining based flow cytometry analysis (reference value: 0.98%); type: functional
[20] = test system: MGC-803; test: Induction of apoptosis in human MGC-803 cells assessed as necrotic cells at 1 uM incubated for 48 hrs by Annexin V-FITC/PI staining based flow cytometry analysis (reference value: 0.83%); type: functional
[21] = test system: MGC-803; test: Induction of apoptosis in human MGC-803 cells assessed as early apoptotic cells at 2 uM incubated for 48 hrs by Annexin V-FITC/PI staining based flow cytometry analysis (reference value: 0.30%); type: functional
[22] = test system: MGC-803; test: Induction of apoptosis in human MGC-803 cells assessed as late apoptotic cells at 2 uM incubated for 48 hrs by Annexin V-FITC/PI staining based flow cytometry analysis (reference value: 0.98%); type: functional
[23] = test system: MGC-803; test: Induction of apoptosis in human MGC-803 cells assessed as necrotic cells at 2 uM incubated for 48 hrs by Annexin V-FITC/PI staining based flow cytometry analysis (reference value: 0.83%); type: functional
[24] = test system: MGC-803; test: Induction of apoptosis in human MGC-803 cells assessed as early apoptotic cells at 4 uM incubated for 48 hrs by Annexin V-FITC/PI staining based flow cytometry analysis (reference value: 0.30%); type: functional
[25] = test system: MGC-803; test: Induction of apoptosis in human MGC-803 cells assessed as necrotic cells at 4 uM incubated for 48 hrs by Annexin V-FITC/PI staining based flow cytometry analysis (reference value: 0.83%); type: functional
[26] = test system: MGC-803; test: Induction of ROS accumulation in human MGC-803 cells assessed as increase in fluorescence intensity at 1 to 4 uM incubated for 48 min by DCFH-DA and PI staining based microscopic analysis; type: functional, cell-based; conditions: dose 1-4 µM
[27] = test system: MGC-803; test: Induction of apoptosis in human MGC-803 cells assessed as upregulation of Bax expression at 1 to 4 uM incubated for 24 hrs by Western blot analysis; type: functional, cell-based; conditions: dose 1-4 µM
[28] = test system: MGC-803; test: Induction of apoptosis in human MGC-803 cells assessed as downregulation of […] expression at 1 to 4 uM incubated for 24 hrs by Western blot analysis; type: functional, cell-based; conditions: dose 1-4 µM
[29] = test system: MGC-803; test: Downregulation of c-FOS level in human MGC-803 cells at 4 uM incubated for 24 hrs by immunoblotting analysis; type: functional, cell-based
[30] = test system: MGC-803; test: Inhibition of ERK phosphorylation in human MGC-803 cells at 4 uM measured after 24 hrs by Western blot analysis; type: cell-based
[31] = test system: MGC-803; test: Downregulation of FABP3 mRNA level in human MGC-803 cells at 4 uM incubated for 24 hrs by RT-qPCR analysis; type: functional, cell-based
[32] = test system: MGC-803; test: Downregulation of ACSS2 mRNA level in human MGC-803 cells at 4 uM incubated for 24 hrs by RT-qPCR analysis; type: functional, cell-based
[33] = test system: MGC-803; test: Lipid-lowering activity in human MGC-803 cells assessed as reduction in lipid droplet accumulation by Oil Red O staining based analysis; type: functional, cell-based; conditions: dose 1-4 µM
[34] = test system: MGC-803; test: Lipid-lowering activity in human MGC-803 cells assessed as reduction in lipid size by Oil Red O staining based analysis; type: functional, cell-based; conditions: dose 1-4 µM
[35] = test system: MGC-803; test: Antitumor activity against human MGC-803 cells xenografted in BALB/c mouse assessed as inhibition of tumor growth at 25 to 50 mg/kg, IG administered for 14 days; type: functional, organism-based; conditions: dose 25-50 mg/kg, time 14.0 day
[36] = test system: MGC-803; test: Antitumor activity against human MGC-803 cells xenografted in BALB/c mouse assessed as inhibition of tumor growth at 25 mg/kg, IG administered for 14 days; type: functional; conditions: MGC-803, po, 336 h, time 14 day, read-out: TGI
[37] = test system: MGC-803; test: Antitumor activity against human MGC-803 cells xenografted in BALB/c mouse assessed as inhibition of tumor growth at 50 mg/kg, IG administered for 14 days; type: functional; conditions: MGC-803, po, 336 h, time 14 day, read-out: TGI

In the case of `C=C1CC[C@@H]2[C@](C)(CO)[C@H](O)CC[C@@]2(C)[C@@H]1/C=C/C1=CC(=C/c2ccc(C)cc2)/NC1=O`, the Activity [1] is reported as “inactive”, the Activity [2] is reported as “inactive” and the IC50 [3] is reported as 3.56 µM. The IC50 [4] was 6.5 µM, the IC50 [5] was 38 µM and the IC50 [6] was 3.56 µM. The Activity [7] was “Time-dependent-effect”, the Activity [8] was “Dose-dependent-effect” and the inhibition [9] was “Dose-dependent-effect”. The Activity [10] was “Active”, the Activity [11] was “Active” and the “Ratio IC50” value [12] was about 14. The “Ratio IC50” value [13] was about 8, the Activity [14] was 14.5% and the Activity [15] was 25.4%. The Activity [16] was “Dose-dependent-effect”, the viability at 1 µM [17] was 71.9% and the Activity [18] was 0.44%. The Activity [19] was 15.1%, the Activity [20] was 12.6% and the Activity [21] was 5.47%. For the same compound, the Activity [22] was 41.5%, the Activity [23] was 12.9% and the Activity [24] was 12.4%. The Activity [25] was 4.54%, the Activity [26] was “Active” and the Activity [27] was “Active”. The Activity [28] was “Active”, the Activity [29] was “Active” and the inhibition [30] was “Active”. The Activity [31] was “Active”, the Activity [32] was “Active” and the Activity [33] was “Dose-dependent-effect”. The Activity [34] was “Dose-dependent-effect”, the TGI [35] was “Active” and the inhibition in vivo at 25 mg/kg [36] was 20%. The inhibition in vivo at 50 mg/kg [37] was 50%.
